Data from patent US10358453B2, “Antiviral compounds” (priority 2015, dated 2019).
Where two headings read alike, the source gives them in different places.

How the values were obtained:
[1] = Cytotoxicity determination (CCK-8, without addition of virus); type: cell-based; details: human, HEp-2 cells (uninfected), no virus, Table C = greater than 100 μM, Table D = equal to or less than 100 μM and greater than 10 μM
Procedure: CPE reduction assays are performed as described by Sidwell and Huffman et al., Appl. Microbiol. (1971) 22(5):797-801 with slight modifications. HEp-2 cells (ATCC#, CCL-23) are seeded at a density of 1,500 cells/30 μL/well into the 384-well cell plate(s) (Corning#3701) one day prior to the assay. Compounds are added into 384-well cell plates by Labcyte POD 810 Plate Assembler system. Each of the test compounds is provided to duplicate wells of a 384-well cell plate at final concentrations starting from 100 μM or 1 μM using 1/3 stepwise dilutions for 9 points. Quick-thaw Respiratory Syncytial Virus (RSV) long strain (ATCC#VR-26) stock in a 37° C. water bath. Place on ice until ready to use. Viruses are diluted to the concentration of 100 TCID50/30 μL with medium and 30 μl diluted RSV are added into related wells of 384-well cell plates. For each plate, sixteen wells are set aside as uninfected, untreated cell controls (CC), and nine wells per test plate receive virus only as a control for virus replication (VC). The final DMSO concentration of all wells is 1%. Place the plates at 37° C., 5% CO2 for 5 days.
In order to determine the compound cytotoxicity, in parallel, each of the compounds is applied to duplicate wells in a 384-well cell plate at serial final concentrations starting from 100 μM using ½ stepwise dilutions for 7 points without addition of virus. Incubate the cells at 37° C., 5% CO2 for 5 days. Add 6 μL CCK-8 into each well and incubate in a CO2 incubator at 37° C. for 3-4 h. Read the plates to obtain the optical densities which are used to calculate 50% cytotoxicity concentration (CC50).

[2] = test system: RSV subgenomic replicon 395 HeLa and APC126; experiment: RSV subgenomic replicon assay (Renilla luciferase); type: cell-based; details: RSV replicon cells (395 HeLa 7 days or APC126 3 days), Table G = less than 1 μM, Table H = equal to or higher than 1 μM and less than 50 μM
From the text: The RSV subgenomic replicon 395 HeLa and APC126 were licensed from Apath (Brooklyn, N.Y.) and were originally developed by Dr. Mark Meeples of Center for Vaccines & Immunity, the Research Institute at Nationwide Children's Hospital in Columbus, Ohio. To generate subgenomic RSV replicon, three glycoprotein genes, those for SH, G, and F, from a full-length recombinant GFP-expressing (rg) RSV antigenomic cDNA were deleted. In their place, a blasticidin S deaminase (bsd) gene was inserted. Through multiple steps, the RSV replicon was established in HeLa cells (395 Hela) or BHK cells (APC126). Both 395 HeLa and APC126 cells were cultured in Dulbecco's Modified Eagle Medium (DMEM) containing 4500 mg/L D-glucose, L-glutamine, and 110 mg/L sodium pyruvate (Invitrogen, Cat. #11995-040). The medium was further supplemented with 10% (v/v) fetal bovine serum (FBS) (Mediatech, Cat. #35-010-CV), 1% (v/v) penicillin/streptomycin (Mediatech, Cat. #30-002-CI), and 10 μg/mL of Blasticidin (BSD) (Invivogen, Cat. code ant-bl-1). Cells were maintained at 37° C. in a humidified 5% CO2 atmosphere.
Determination of 50% inhibitory concentration (EC50), 90% inhibitory concentration (EC90) and 50% cytotoxic concentration (CC50) in RSV replicon cells were performed by the following procedure. On the first day, 5000 RSV replicon cells per well were plated in a 96-well plate. On the following day, compounds to be tested were solubilized in 100% DMSO to 100X the desired final testing concentration. Each compound was serially diluted (1:3) up to 9 distinct concentrations. Compounds in 100% DMSO were reduced to 10% (v/v) DMSO by diluting 1:10 in cell culture media. A 10 μL sample of the compounds diluted to 10% (v/v) DMSO with cell culture media was used to treat the RSV replicon cells in 96-well format. The final DMSO concentration was 1% (v/v). Cells were incubated with compounds for 7 days (for 395Hela) or 3 days (for APC126) at 37° C. in a 5% CO2 atmosphere. In each assay, positive control that was previously characterized in the RSV replicon assay was included.
The Renilla Luciferase Assay System (Promega, Cat. #E2820) was used to measure anti-RSV replicon activity. Assay plates were set up as stated above. Luminescence was recorded using a Perkin Elmer multilabel counter Victor3V. EC50, the concentration of the drug required for reducing RSV replicon RNA by 50% in relation to the untreated cell control value, was calculated from the plot of percentage reductions of the […] against the drug concentrations using the Microsoft Excel forecast function.

recombinant RSV complex = recombinant RSV complex (Human respiratory syncytial virus A, UniProt P28887); experiment: RSV polymerase inhibition assay; type: biochemical; details: 2 h at 30° C., Table E = <1 μM, Table F = <50 μM
Sequence of recombinant RSV complex (P28887 whole entry): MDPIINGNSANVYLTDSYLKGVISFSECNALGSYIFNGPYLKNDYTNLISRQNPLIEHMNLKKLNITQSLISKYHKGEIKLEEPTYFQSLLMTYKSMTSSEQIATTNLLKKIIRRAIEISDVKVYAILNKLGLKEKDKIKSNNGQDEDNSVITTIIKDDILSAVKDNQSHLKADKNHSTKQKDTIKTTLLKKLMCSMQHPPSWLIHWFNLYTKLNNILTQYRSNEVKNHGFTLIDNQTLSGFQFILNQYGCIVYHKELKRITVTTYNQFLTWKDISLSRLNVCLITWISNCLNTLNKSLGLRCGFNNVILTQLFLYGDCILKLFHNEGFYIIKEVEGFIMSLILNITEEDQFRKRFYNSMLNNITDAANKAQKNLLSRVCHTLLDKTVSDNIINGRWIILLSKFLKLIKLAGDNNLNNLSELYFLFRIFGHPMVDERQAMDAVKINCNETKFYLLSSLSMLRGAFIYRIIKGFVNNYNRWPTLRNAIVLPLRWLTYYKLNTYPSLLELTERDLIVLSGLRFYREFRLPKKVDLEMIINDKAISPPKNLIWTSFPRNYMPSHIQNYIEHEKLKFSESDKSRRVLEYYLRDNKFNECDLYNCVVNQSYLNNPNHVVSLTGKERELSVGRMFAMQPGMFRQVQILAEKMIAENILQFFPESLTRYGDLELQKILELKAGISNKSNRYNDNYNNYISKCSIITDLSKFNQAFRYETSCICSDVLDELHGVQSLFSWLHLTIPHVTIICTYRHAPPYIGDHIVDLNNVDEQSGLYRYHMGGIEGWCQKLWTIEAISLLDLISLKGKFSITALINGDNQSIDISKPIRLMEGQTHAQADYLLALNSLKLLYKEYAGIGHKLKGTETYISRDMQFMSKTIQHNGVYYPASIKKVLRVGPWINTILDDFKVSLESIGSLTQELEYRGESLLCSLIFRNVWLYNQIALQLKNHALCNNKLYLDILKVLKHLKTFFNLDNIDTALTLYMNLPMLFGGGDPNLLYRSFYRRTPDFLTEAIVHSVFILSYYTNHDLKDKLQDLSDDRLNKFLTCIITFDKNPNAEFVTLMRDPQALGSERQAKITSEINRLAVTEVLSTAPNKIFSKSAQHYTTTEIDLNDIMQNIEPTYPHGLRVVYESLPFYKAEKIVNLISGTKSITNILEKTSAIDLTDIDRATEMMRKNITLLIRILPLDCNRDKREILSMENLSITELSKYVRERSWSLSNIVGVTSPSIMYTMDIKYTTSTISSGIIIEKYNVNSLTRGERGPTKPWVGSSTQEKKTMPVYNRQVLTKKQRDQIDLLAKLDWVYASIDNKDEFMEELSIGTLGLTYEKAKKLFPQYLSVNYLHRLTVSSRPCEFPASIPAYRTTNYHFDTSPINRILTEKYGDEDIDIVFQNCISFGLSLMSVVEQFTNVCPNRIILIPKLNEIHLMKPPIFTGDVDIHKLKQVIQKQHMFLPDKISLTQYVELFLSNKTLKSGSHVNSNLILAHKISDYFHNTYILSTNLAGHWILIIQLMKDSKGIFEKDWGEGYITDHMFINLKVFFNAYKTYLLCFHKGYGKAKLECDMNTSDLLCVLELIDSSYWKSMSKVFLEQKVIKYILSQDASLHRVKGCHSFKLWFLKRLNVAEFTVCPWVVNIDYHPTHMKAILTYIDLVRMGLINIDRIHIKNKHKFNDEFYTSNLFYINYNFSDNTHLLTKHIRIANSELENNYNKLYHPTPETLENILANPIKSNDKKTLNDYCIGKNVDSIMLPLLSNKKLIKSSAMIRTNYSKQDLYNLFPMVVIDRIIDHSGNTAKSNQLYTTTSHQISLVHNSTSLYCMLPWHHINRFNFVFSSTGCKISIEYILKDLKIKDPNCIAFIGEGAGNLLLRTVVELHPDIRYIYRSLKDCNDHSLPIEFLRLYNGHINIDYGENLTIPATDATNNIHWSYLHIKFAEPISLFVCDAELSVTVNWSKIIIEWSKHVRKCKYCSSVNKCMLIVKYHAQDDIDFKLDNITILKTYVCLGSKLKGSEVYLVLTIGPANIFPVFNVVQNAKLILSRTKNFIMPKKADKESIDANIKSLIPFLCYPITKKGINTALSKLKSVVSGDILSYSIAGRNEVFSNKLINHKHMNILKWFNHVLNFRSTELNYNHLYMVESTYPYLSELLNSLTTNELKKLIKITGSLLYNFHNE
Sequence of recombinant RSV complex (P03421 whole entry, further chain): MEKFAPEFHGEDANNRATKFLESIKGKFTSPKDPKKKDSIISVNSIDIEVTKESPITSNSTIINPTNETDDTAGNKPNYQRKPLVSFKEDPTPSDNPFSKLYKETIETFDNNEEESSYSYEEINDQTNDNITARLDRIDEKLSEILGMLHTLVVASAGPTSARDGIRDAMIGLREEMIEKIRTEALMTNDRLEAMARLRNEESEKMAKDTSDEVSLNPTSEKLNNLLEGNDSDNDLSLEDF
Procedure: Standard RSV polymerase assays were conducted in the presence of 10 nM recombinant RSV complex in a reaction buffer containing Tris-HCl pH7.5, 6 mM MgCl2, and other additives and substrates including RNA oligonucleotides and radionucleotides. Standard reactions were incubated in 96-well plate format for 2 h at 30° C., in the presence of increasing concentration of inhibitor. The reaction was stopped with 90 μL of 0.1M EDTA, and the reaction product was transferred to a “reading” 96-well plate. After washing of the plate, radiolabeled RNA products were detected according to standard procedures with a Trilux Topcount scintillation counter. The compound concentration at which the enzyme-catalyzed rate was reduced by 50% (IC50) was calculated by fitting the data to a non-linear regression (sigmoidal).

[3] = human respiratory syncytial virus
[4] = 10 nM recombinant RSV complex, read-out: IC50

Row | Compound | CC50 at 5 days [1] | IC50 (recombinant RSV complex; [4]) | further results
1 | COc1cc(C(=O)NC[C@@](O)(c2cc3c(c(-c4ccc(F)cc4)n2)OC[C@@]3(C)N)C(F)(F)F)cc2ccc(CO)nc12 [Compound 84] | 10 to 100 µM | < 1 µM | EC50 [2, 3]: < 1 µM
2 | COc1cc(C(=O)NC[C@@](O)(c2cc3c(c(-c4ccc(F)cc4)n2)OC[C@@]3(C)N)C(F)(F)F)cc2c1NCCC2 [Compound 96] |  | < 1 µM | EC50 [2, 3]: < 1 µM
3 | C[C@@]1(N)CNc2c1cc([C@](O)(CNC(=O)c1ccc(OC3CC3)c(OC3CC3)c1)C(F)(F)F)nc2-c1ccc(F)cc1 [Compound 62] | 10 to 100 µM | < 50 µM | EC50 [2, 3]: < 1 µM
4 | COc1cc(C(=O)NCC(O)(c2cc3c(c(-c4ccc(F)cc4)n2)OCC3(C)N)C(F)(F)F)ccc1NC1CC1 (centres unmarked) [Compound 31] | 10 to 100 µM | < 1 µM | EC50 [2, 3]: < 1 µM
5 | COc1cc(C(=O)NCC(O)(c2cn(C(C)(C)CN)cc(-c3ccc(F)cc3)c2=O)C(F)(F)F)ccc1OCCO (centres unmarked) [Compound 78] |  | < 50 µM | 
6 | COc1cc(C(=O)NCC(O)(c2cc3c(c(-c4ccc(F)cc4)n2)OC[C@@]3(C)N)C(F)(F)F)cc2c1OC(=O)NC2 (some centres unmarked) [Compound 17] |  | < 1 µM | 
7 | COc1cc(C(=O)NCC(O)(c2cc3c(c(-c4ccc(F)cc4)n2)OCC3(C)N)C(F)(F)F)cc2c1NC(=O)NC2 (centres unmarked) [Compound 43] | 10 to 100 µM | < 1 µM | EC50 [2, 3]: 1 to 50 µM
8 | COc1cc(C(=O)NC[C@@](O)(c2cc3c(c(-c4ccc(F)cc4)n2)OC[C@@]3(C)N)C(F)(F)F)cc(OC)c1OCCO [Compound 67] | > 100 µM |  | EC50 [2, 3]: < 1 µM; IC50 (recombinant RSV complex; IC50, 10 nM recombinant RSV complex): < 50 µM
9 | COc1cc(C(=O)NCC(O)(c2cc3c(c(-c4ccc(F)cc4)n2)OCC3(N)CO)C(F)(F)F)cc2cc[nH]c12 (centres unmarked) [Compound 102] | 10 to 100 µM | < 1 µM | EC50 [2, 3]: 1 to 50 µM
10 | COc1cc(C(=O)NCC(O)(c2nc(-c3ccc(F)cc3)n3ccccc23)C(F)(F)F)ccc1OCCO (centres unmarked) [Compound 137] |  | < 1 µM | 
11 | COc1cc(C(=O)NCC(O)(c2cc3c(c(-c4ccc(F)cc4)n2)OCC32CCN2)C(F)(F)F)ccc1OCCO (centres unmarked) [Compound 109] | 10 to 100 µM | < 1 µM | 
12 | COc1cc(C(=O)NCC(O)(c2cc(C3(C)CCNC3)cc(-c3ccc(F)cc3)n2)C(F)(F)F)ccc1OCCO (centres unmarked) [Compound 116] | 10 to 100 µM | < 1 µM | 
13 | COc1cc(C(=O)NCC(O)(c2cc3c(c(-c4ccc(F)cc4)n2)OCC3(C)N)C(F)(F)F)ccc1C#CCO (centres unmarked) [Compound 28] |  | < 1 µM | EC50 [2, 3]: < 1 µM
14 | COc1cc(C(=O)NC[C@@](O)(c2cc3c(C)c[nH]c3c(-c3ccc(F)cc3)n2)C(F)(F)F)ccc1OCCO [Compound 111] | 10 to 100 µM | < 1 µM | 
15 | CC1(N)COc2c1cc(C(O)(CNC(=O)c1ccc3c(c1)OCCN3CCO)C(F)(F)F)nc2-c1ccc(F)cc1 (centres unmarked) [Compound 33] |  | < 1 µM | EC50 [2, 3]: < 1 µM
16 | COc1cc(C(=O)NCC(O)(c2cc3c(c(-c4ccccc4)n2)OCC3(C)N)C(F)(F)F)ccc1OCCO (centres unmarked) [Compound 27] | 10 to 100 µM | < 1 µM | 
17 | COc1cc(C(=O)NC[C@@](O)(c2cc3c(c(-c4ccc(F)cc4)n2)NCC[C@]3(C)N)C(F)(F)F)ccc1OC[C@@H](C)O [Compound 100] |  | < 50 µM | 

Row | Compound | CC50 at 5 days [1] | IC50 (recombinant RSV complex; [4]) | further results
18 | COc1nc(C(=O)NC[C@@](O)(c2cc3c(c(-c4ccc(F)cc4)n2)NC[C@@]3(C)N)C(F)(F)F)cc2c1NC(=O)C2 [Compound 99] |  | < 1 µM | 
19 | CC1(N)COc2c1cc(C(O)(CNC(=O)c1cnc(OCCO)cc1O)C(F)(F)F)nc2-c1ccc(F)cc1 (centres unmarked) [Compound 46] | > 100 µM |  | 
20 | COc1cc(C(=O)NC[C@@](O)(c2cc3c(c(-c4ccc(F)cc4)n2)OC[C@@]3(C)N)C(F)(F)F)ncc1OCCO [Compound 77] |  | < 1 µM | 
21 | CC1(N)COc2c1cc(C(O)(CNC(=O)c1cc3c(c(OC4CC4)c1)OC(=O)NC3)C(F)(F)F)nc2-c1ccc(F)cc1 (centres unmarked) [Compound 32] |  | < 1 µM | 
22 | CC1(N)COc2c1cc(C(O)(CNC(=O)c1ccc(OC3CC3)c(OCCO)c1)C(F)(F)F)nc2-c1ccc(F)cc1 (centres unmarked) [Compound 35] |  | < 1 µM | 
23 | CC(C)(N)c1cc(-c2ccc(F)cc2)nc([C@](O)(CNC(=O)c2ccc(OC3CC3)c(OCCO)c2)C(F)(F)F)c1 [Compound 58] |  | < 1 µM | 
24 | COc1cc(C(=O)NC[C@@](O)(c2cc3c(c(-c4ccc(F)cc4)n2)OC[C@@]3(C)N)C(F)(F)F)cc2ccn(CCO)c12 [Compound 89] |  | < 1 µM | 
25 | CC(C)(N)c1cc(-c2ccc(F)cc2)nc([C@](O)(CNC(=O)c2ccc(OCCO)c(OC3CC3)c2)C(F)(F)F)c1 [Compound 56] |  | < 1 µM | 
26 | C[C@@]1(N)COc2c1cc([C@](O)(CNC(=O)c1ccc(Cl)s1)C(F)(F)F)nc2-c1ccc(F)cc1 [Compound 110] | 10 to 100 µM |  | 
27 | COc1cc(C(=O)NCC(O)(c2nc(-c3ccc(F)cc3)c3ccccn23)C(F)(F)F)ccc1OCCO (centres unmarked) [Compound 54] |  | < 50 µM | 
28 | CC1(N)COc2c1cc(C(O)(CNC(=O)c1ccc(OC3CC3)c(OC3CC3)c1)C(F)(F)F)nc2-c1ccc(F)cc1 (centres unmarked) [Compound 25] | 10 to 100 µM | < 1 µM | 
29 | C[C@@]1(N)CNc2c1cc([C@](O)(CNC(=O)c1ccc(OC3CC3)c(OC3CC3)c1)C(F)(F)F)nc2-c1ccc(F)cc1 [Compound 126] |  | < 1 µM | EC50 [2]: < 1 µM
30 | COc1cc(C(=O)NC[C@](O)(c2cc3c(c(-c4ccc(F)cc4)n2)NC[C@]3(C)N)C(F)(F)F)ccc1OCCO (single isomer, unassigned) [Compound 53] |  | < 1 µM | 
31 | COc1cc(C(=O)NCC(O)(c2cc3c(c(-c4ccc(F)cc4)n2)OCC3(C)N)C(F)(F)F)cc2c1NC(=O)C2 (centres unmarked) [Compound 9] |  | < 1 µM | 
32 | CC[C@]1(N)COc2c1cc([C@](O)(CNC(=O)c1ccc(OC[C@@H](C)O)c(OC)c1)C(F)(F)F)nc2-c1ccc(F)cc1 [Compound 133] |  | < 1 µM | 
33 | COc1nc(C(=O)NCC(O)(c2cc3c(c(-c4ccc(F)cc4)n2)OCC3(C)N)C(F)(F)F)cc2oc(=O)[nH]c12 (centres unmarked) [Compound 48] | 10 to 100 µM | < 50 µM | 
34 | COc1ccc(C(=O)NCC(N)(c2cc(C(C)(C)N)cc(-c3ccc(F)cc3)n2)C(F)(F)F)cc1OCCO (centres unmarked) [Compound 42] |  | < 1 µM | 
